Measurements from patent US9617310B2 (priority 2013, dated 2017).

Columns and labels:
[1] = test system: genotype 4a stable HCV replicon (ED43) in Huh-7-derived cells; experiment: Stable subgenomic HCV replicon, genotype 4a, Renilla luciferase; assay type: cell-based; details: Hepatitis C virus, 72 h, read-out: EC50 4A RLUC
Protocol: (§1) Antiviral potency (EC50) was determined in both stable subgenomic HCV replicon cell lines and transient-transfected HCV replicon cells. The term half maximal effective concentration (EC50) refers to the concentration of a drug which induces a response halfway between the baseline and maximum after the exposure time specified below.
(§2) Stable subgenomic HCV replicons for genotype 1a, 1b, 2a, 3a, and 4a were established in Huh-7-derived cells as described by Lohmann et al (Lohmann V, Korner F, Koch J, et al Replication of subgenomic hepatitis C virus RNAs in a hepatoma cell line. Science 1999; 285:119-3). Each stable cell line contains a bicistronic HCV replicon that encodes a humanized Renilla luciferase (hRLuc) reporter gene fused to a selectable neomycin-resistance gene, followed by an EMCV IRES and the NS3-NS5B coding region of HCV. […] Luciferase activity was measured as a marker for intracellular HCV replication levels.
(§3) The genotype 1a stable replicon was derived from the H77 HCV strain and contained adaptive mutations P1496L and S2204I. The genotype 1b stable replicon was derived from the Con1 HCV strain and contained adaptive mutations E1202G, T1280I, and K1846T. […] The genotype 3a stable replicon was derived from the S52 HCV strain and contained adaptive mutations P1121 L, A1198T and S2210I (equivalent to S2204I in genotype 1). The genotype 4a stable replicon was derived from the ED43 HCV strain and contained adaptive mutations Q1691R and S2204I. All replicon cell lines were propagated in Huh-7-derived cells and maintained in Dulbecco's modified Eagle's Medium (DMEM) supplemented with 10% fetal bovine serum (FBS) and 0.5 mg/ml G418.
(§4) To perform EC50 assays, cells from each HCV replicon were dispensed into 384-well plates. Compounds were dissolved in DMSO at a concentration of 10 mM and diluted in DMSO using an automated pipetting instrument. Three-fold serially diluted compounds were directly added to the cells using an automated instrument. DMSO was used as a negative (solvent; no inhibition) control, and a combination of three HCV inhibitors including a protease inhibitor; an NS5A inhibitor and a nucleoside inhibitor was used at concentrations >100×EC50 as a positive control (100% inhibition). Seventy-two hours later, cells were lysed and Renilla luciferase activity were quantified as recommended by the manufacturer (Promega-Madison, Wis.). Non-linear regression was performed to calculate […], values.

[2] = test system: genotype 2a stable HCV replicon (JFH-1) in Huh-7-derived cells; experiment: Stable subgenomic HCV replicon, genotype 2a, Renilla luciferase; assay type: cell-based; details: Hepatitis C virus, stable replicon genotype 2a, 72 h, read-out: EC50 2A RLUC
Protocol: as §1, §2, §3, §4

[3] = test system: genotype 1a stable HCV replicon (H77) in Huh-7-derived cells; experiment: Stable subgenomic HCV replicon, genotype 1a, Renilla luciferase; assay type: cell-based; details: Hepatitis C virus, stable replicon genotype 1a, 72 h, read-out: EC50 1A RLUC
Protocol: as §1, §2, §3, §4

[4] = test system: genotype 3a stable HCV replicon (S52) in Huh-7-derived cells; experiment: Stable subgenomic HCV replicon, genotype 3a, Renilla luciferase; assay type: cell-based; details: Hepatitis C virus, 72 h, read-out: EC50 3A RLUC
Protocol: as §1, §2, §3, §4

[5] = test system: genotype 1b stable HCV replicon (Con1) in Huh-7-derived cells; experiment: Stable subgenomic HCV replicon, genotype 1b, Renilla luciferase; assay type: cell-based; details: Hepatitis C virus, stable replicon genotype 1b, 72 h, read-out: EC50 1B RLUC
Method in brief: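 Replicons carry hRLuc-neo, EMCV IRES and NS3-NS5B with adaptive mutations: 1a H77 P1496L/S2204I, 1b Con1 E1202G/T1280I/K1846T, 4a ED43 Q1691R/S2204I. EC50 came from non-linear regression versus DMSO and a triple-inhibitor full-inhibition control.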

[6] = test system: NS3/4a protease inhibitor resistant variant R155K in genotype 1a transient HCV replicon; experiment: Transient-transfected HCV replicon, genotype 1a R155K; assay type: cell-based; details: Hepatitis C virus, 72 h, read-out: EC50 1A R155K
NS3 genotype 1b protease = molecular target: T1, NS3 genotype 1b protease (Hepatitis C virus genotype 1b, UniProt Q9WMX2, E1202G); experiment: Ki determination, NS3 protease genotype 1b (fluorogenic depsipeptide substrate); assay type: biochemical; details: NS3 protease domain genotype 1b, NS4A peptide
T1 construct: Purified NS3 protease domain (amino acids 1-181) of the genotype 1b and 3a virus were generated as above; K3 hexahistidine tag (N); rTEV protease cleavage site (N); made in house; host or cells: E. coli BL21AI
From the text: Ki Determination for Genotypes 1b and 3a NS3 Protease.
Purified NS3 protease domain (amino acids 1-181) of the genotype 1b and 3a virus were generated as above. The internally quenched fluorogenic depsipeptide substrate Ac-DED(Edans)-EEAbuψ[COO]ASK(Dabcyl)-NH2 and a synthetic peptide containing the hydrophobic core residues of the NS4A protein cofactor ([…]; NS4A peptide) were obtained from Anaspec, Inc. (San Jose, Calif.). Other chemicals and biochemicals were of reagent grade or better and were purchased from standard suppliers.
Reactions were run at room temperature in buffer consisting of 50 mM HEPES, 40% glycerol, 0.05% Triton X-100, 10 mM DTT, and 10% DMSO. The final assay solutions contained 50 pM NS3 genotype 1b protease or 200 pM genotype 3a protease, 20 μM NS4A peptide, and 4 μM substrate (genotype 1b) or 2 μM substrate (genotype 3a). Inhibitor concentrations varied from 100 nM to 5 pM in 3-fold dilutions, and no-inhibitor controls were included.
Compound dilutions were made in DMSO at 20× final concentration. Reaction mixtures were prepared in 96-well assay plates. A solution of enzyme and NS4A peptide in assay buffer (25 μL volume with both reagents at 4× final concentration) was mixed with 45 μL assay buffer and 5 μL of either inhibitor or DMSO, and pre-incubated at room temperature for 1 hour. The reaction was started by addition of 25 μL substrate solution at 4× final concentration. Plates were mixed vigorously for 5-10 seconds and reactions were allowed to proceed for 90 minutes. Fluorescence was measured every 30 s between 90 and 120 minutes reaction time using a Tecan InfiniTe M1000 or PerkinElmer Envision multimode plate reader with an excitation wavelength of 340 nm and an emission wavelength of 490 nm.
Rates were calculated from the progress curves at steady state, in the time frame of 90-120 minutes after addition of substrate. To determine the Ki, rates were plotted as a function of inhibitor concentration, and the data were fit with equation 1 (Morrison, J. F., Biochimica et Biophysica Acta 1969, 185, 269-286) to calculate Ki^app using GraphPad Prism 5. Active fraction of enzyme was determined by active site titration with known potent inhibitors. Ki was calculated from Ki^app/(1+[[S]/Km]).

[7] = test system: genotype 3a transient HCV replicon (S52) in Huh-7-derived cells; experiment: Transient-transfected HCV replicon, genotype 3a wild type; assay type: cell-based; details: Hepatitis C virus; transient-transfected replicon genotype 3a wild type, 72 h; read-out: EC50 3A WT
[8] = test system: NS3/4a protease inhibitor resistant variant D168A in genotype 1b transient HCV replicon; experiment: Transient-transfected HCV replicon, genotype 1b D168A; assay type: cell-based; details: Hepatitis C virus, 72 h, read-out: EC50 1B D168A

T1 sequence (Q9WMX2 1027-1207 E1202G, other chains not shown): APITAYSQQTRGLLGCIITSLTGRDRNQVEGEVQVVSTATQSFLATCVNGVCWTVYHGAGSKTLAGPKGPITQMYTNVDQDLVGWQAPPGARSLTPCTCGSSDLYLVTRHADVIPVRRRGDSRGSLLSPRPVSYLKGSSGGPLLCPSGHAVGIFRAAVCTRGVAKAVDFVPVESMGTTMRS

Row | SMILES | EC50 [1] | EC50 [2] | EC50 [3] | EC50 [4] | EC50 [5] | EC50 [6] | Ki (NS3 genotype 1b protease) | EC50 [7] | EC50 [8]
1 | COc1ccc2nc3c(nc2c1)O[C@@H]1C[C@@H](C(=O)N[C@]2(C(=O)NS(=O)(=O)C4CC4)C[C@H]2C(F)F)N(C1)C(=O)[C@H](C(C)(C)C)NC(=O)O[C@@H]1[C@H]2CC[C@H](C2)[C@H]1CCCCC3 [Example 4, (1R,4S,4aR,8S,11S,13R,25aR)-8-tert-butyl-N-[(1R,2R)-1-[(cyclopropylsulfonyl)carbamoyl]-2-(difluoromethyl)cyclopropyl]-17-methoxy-6,9-dioxo-2,3,4,4a,6,7,8,9,12,13,21,22,23,24,25,25a-hexadecahydro-1H,11H-1, 4:10,13-dimethanoquinoxalino[2,3-k][1,10,3,6]benzodioxadiazacyclononadecine-11-carboxamide] | 3.1 nM | 18 nM | 4.3 nM | 429 nM | 2.6 nM | 27 nM | 0.02 nM | 63 nM | 112 nM
2 | COc1ccc2nc3c(nc2c1)O[C@@H]1C[C@@H](C(=O)N[C@]2(C(=O)NS(=O)(=O)C4(C)CC4)C[C@H]2C(F)F)N(C1)C(=O)[C@H](C(C)(C)C)NC(=O)O[C@@H]1[C@H]2CC[C@H](C2)[C@H]1CCCCC3 [Example 5, (1R,4S,4aR,8S,11S,13R,25aR)-8-tert-butyl-N-[(1R,2R)-2-(difluoromethyl)-1-{[(1-methylcyclopropyl)sulfonyl]carbamoyl}cyclopropyl]-17-methoxy-6,9-dioxo-2,3,4,4a,6,7,8,9,12,13,21,22,23,24,25,25a-hexadecahydro-1H,11H-1, 4:10,13-dimethanoquinoxalino[2,3-k][1,10,3,6]benzodioxadiazacyclononadecine-11-carboxamide] | 3.9 nM | 14 nM | 5 nM | 473 nM | 3.5 nM | 35 nM | 0.02 nM | 64 nM | 161 nM
3 | COc1ccc2nc3c(nc2c1)O[C@@H]1C[C@@H](C(=O)N[C@]2(C(=O)NS(=O)(=O)C4CC4)C[C@H]2C(F)F)N(C1)C(=O)[C@H](C(C)(C)C)NC(=O)O[C@H]1[C@H](CCCCC3)C[C@H]2C[C@H]21 [Example 7, (1aR,1bS,5S,8S,10R,22aR,23aR)-5-tert-butyl-N-[(1R,2R)-1-[(cyclopropylsulfonyl)carbamoyl]-2-(difluoromethyl)cyclopropyl]-14-methoxy-3,6-dioxo-1a,1b,3,4,5,6,9,10,18,19,20,21,22,22a,23,23a-hexadecahydro-1H,8H-7,10-methanocyclopropa[3′,40]cyclopenta[1′,2′:18,19][1,10,3,6]dioxadiazacyclononadecino[11,12-b]quinoxaline-8-carboxamide] | 55 nM | 199 nM | 95 nM | 3300 nM | 82 nM | 180 nM | 0.05 nM | 928 nM | 1070 nM
4 | COc1ccc2nc3c(nc2c1)O[C@@H]1C[C@@H](C(=O)N[C@]2(C(=O)NS(=O)(=O)C4(C)CC4)C[C@H]2C(F)F)N(C1)C(=O)[C@H](C(C)(C)C)NC(=O)O[C@H]1[C@H](CCCCC3)C[C@H]2C[C@H]21 [Example 8, (1aR,1bS,5S,8S,10R,22aR,23aR)-5-tert-butyl-N-[(1R,2R)-2-(difluoromethyl)-1-{[(1-methylcyclopropyl)sulfonyl]carbamoyl}cyclopropyl]-14-methoxy-3,6-dioxo-1a,1b,3,4,5,6,9,10,18,19,20,21,22,22a, 23,23a-hexadecahydro-1H,8H-7,10-methanocyclopropa[3′,4′]cyclopenta [1′,2′:18,19][1,10,3,6]dioxadiazacyclononadecino[11,12-b]quinoxaline-8-carboxamide] | 33 nM | 110 nM | 76 nM | 2450 nM | 55 nM | 148 nM | 0.04 nM | 817 nM | 712 nM
5 | COc1ccc2nc3c(nc2c1)O[C@@H]1C[C@@H](C(=O)N[C@]2(C(=O)NS(=O)(=O)C4(C)CC4)C[C@H]2C(F)F)N(C1)C(=O)[C@H](C(C)(C)C)NC(=O)O[C@@H]1C[C@@H]2C[C@@H]2[C@H]1CCCCC3(F)F [Example 10, (1aS,2aR,6S,9S,11R,23aR,23bS)-6-tert-butyl-N-[(1R,2R)-2-(difluoromethyl)-1-{[(1-methylcyclopropyl)sulfonyl]carbamoyl}cyclopropyl]-19,19-difluoro-15-methoxy-4,7-dioxo-1a,2,2a,4,5,6,7,10,11,19,20,21,22,23,23a,23b-hexadecahydro-1H,9H-8,11-methanocyclopropa [4′,5′]cyclopenta[1′,2′:18,19][1,10,3,6]dioxadiazacyclononadecino[11,12-b]quinoxaline-9-carboxamide] | 1.3 nM | 1.6 nM | 1.6 nM | 4.9 nM | 1.4 nM | 1.3 nM | 0.02 nM | 2.3 nM | 1 nM
